{"source": "ChEMBL document CHEMBL1156211", "about": "“Amide-based inhibitors of p38alpha MAP kinase. Part 1: discovery of novel N-pyridyl amide lead molecules” (Bioorg Med Chem Lett, 2010)", "data": [{"molecular_target": "T1, Mitogen-activated protein kinase 14 (Homo sapiens, UniProt Q16539)", "T1 sequence (Q16539 whole entry)": "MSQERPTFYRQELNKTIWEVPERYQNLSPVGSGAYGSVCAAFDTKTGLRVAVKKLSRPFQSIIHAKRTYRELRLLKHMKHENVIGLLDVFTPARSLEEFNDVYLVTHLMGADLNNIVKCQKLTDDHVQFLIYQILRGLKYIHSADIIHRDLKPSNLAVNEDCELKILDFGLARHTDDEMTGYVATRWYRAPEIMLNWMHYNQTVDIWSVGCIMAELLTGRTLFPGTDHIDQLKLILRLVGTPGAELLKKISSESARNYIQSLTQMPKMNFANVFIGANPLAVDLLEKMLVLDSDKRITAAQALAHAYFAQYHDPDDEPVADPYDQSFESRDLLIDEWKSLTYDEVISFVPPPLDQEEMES", "experiment": "Inhibition of p38alpha assessed as inhibition of gamma-32p-ATP incorporation into biotin peptide substrate after 60 mins by scintillation counter", "units": {"IC50": "µM"}, "values": [{"smiles": "O=C(c1ccc2ccccc2c1)N(Cc1ccc(F)cc1)c1ccncc1", "IC50": 1.26}, {"smiles": "Nc1cc(N(Cc2ccc(F)cc2)C(=O)c2ccc3ccccc3c2)ccn1", "IC50": 5.08}, {"smiles": "CC(=O)N(Cc1ccc(F)cc1)c1ccnc(N[C@@H](C)c2ccccc2)c1", "IC50": 0.408}, {"smiles": "C[C@H](Nc1cc(N(Cc2ccc(F)cc2)C(=O)c2ccc3ccccc3c2)ccn1)c1ccccc1", "IC50": 0.345}, {"smiles": "O=C(c1ccc2ccccc2c1)N(Cc1ccc(F)cc1)c1ccnc(NC2CCCCC2)c1", "IC50": 1.11}, {"smiles": "O=C(c1ccc2ccccc2c1)N(Cc1ccc(F)cc1)c1ccnc(NCc2ccccc2)c1", "IC50": 1.22}, {"smiles": "C[C@H](Nc1cc(N(Cc2ccc(F)cc2)S(=O)(=O)c2ccc3ccccc3c2)ccn1)c1ccccc1", "IC50": 7.54}, {"smiles": "C[C@H](Nc1cc(N(Cc2ccc(F)cc2)C(=O)N2CCC3C=CC=CC3C2)ccn1)c1ccccc1", "note": "(stereo not given in full)", "IC50": 1.11}, {"smiles": "CCN(C(=O)c1ccc2ccccc2c1)c1ccnc(N[C@@H](C)c2ccccc2)c1", "IC50": 0.313}, {"smiles": "C[C@@H](Nc1cc(N(Cc2ccc(F)cc2)C(=O)c2ccc3ccccc3c2)ccn1)c1ccccc1", "IC50": 7.8}, {"smiles": "C[C@H](Nc1cc(N(Cc2ccc(F)cc2)C(=O)c2ccccc2)ccn1)c1ccccc1", "IC50": 0.589}, {"smiles": "CC(C)Nc1cc(N(Cc2ccc(F)cc2)C(=O)c2ccc3ccccc3c2)ccn1", "IC50": 0.671}]}, {"molecular_target": "T1, Mitogen-activated protein kinase 14", "experiment": "Inhibition of p38alpha assessed as inhibition of gamma-32p-ATP incorporation into biotin peptide substrate at 1 uM after 60 mins by scintillation counter", "units": {"inhibition": "%"}, "values": [{"smiles": "C[C@H](Nc1cc(NCc2ccc(F)cc2)ccn1)c1ccccc1", "inhibition": 0}, {"smiles": "C[C@H](Nc1cc(CN(C(=O)c2ccc3ccccc3c2)c2ccc(F)cc2)ccn1)c1ccccc1", "inhibition": 0}, {"smiles": "O=C(c1ccc2ccccc2c1)N(Cc1ccncc1)c1ccc(F)cc1", "inhibition": 0}]}]}
